# According to publication PMC9090415, “Discovery of small molecule inhibitors of Plasmodium falciparum apicoplast DNA polymerase” (Journal of Enzyme Inhibition and Medicinal Chemistry, 2022):
# Molecular target: T1, bacteriophage T4 DNA polymerase (Enterobacteria phage T4, UniProt P04415)
# T1 construct: made in house
# T1 sequence (P04415 1-898): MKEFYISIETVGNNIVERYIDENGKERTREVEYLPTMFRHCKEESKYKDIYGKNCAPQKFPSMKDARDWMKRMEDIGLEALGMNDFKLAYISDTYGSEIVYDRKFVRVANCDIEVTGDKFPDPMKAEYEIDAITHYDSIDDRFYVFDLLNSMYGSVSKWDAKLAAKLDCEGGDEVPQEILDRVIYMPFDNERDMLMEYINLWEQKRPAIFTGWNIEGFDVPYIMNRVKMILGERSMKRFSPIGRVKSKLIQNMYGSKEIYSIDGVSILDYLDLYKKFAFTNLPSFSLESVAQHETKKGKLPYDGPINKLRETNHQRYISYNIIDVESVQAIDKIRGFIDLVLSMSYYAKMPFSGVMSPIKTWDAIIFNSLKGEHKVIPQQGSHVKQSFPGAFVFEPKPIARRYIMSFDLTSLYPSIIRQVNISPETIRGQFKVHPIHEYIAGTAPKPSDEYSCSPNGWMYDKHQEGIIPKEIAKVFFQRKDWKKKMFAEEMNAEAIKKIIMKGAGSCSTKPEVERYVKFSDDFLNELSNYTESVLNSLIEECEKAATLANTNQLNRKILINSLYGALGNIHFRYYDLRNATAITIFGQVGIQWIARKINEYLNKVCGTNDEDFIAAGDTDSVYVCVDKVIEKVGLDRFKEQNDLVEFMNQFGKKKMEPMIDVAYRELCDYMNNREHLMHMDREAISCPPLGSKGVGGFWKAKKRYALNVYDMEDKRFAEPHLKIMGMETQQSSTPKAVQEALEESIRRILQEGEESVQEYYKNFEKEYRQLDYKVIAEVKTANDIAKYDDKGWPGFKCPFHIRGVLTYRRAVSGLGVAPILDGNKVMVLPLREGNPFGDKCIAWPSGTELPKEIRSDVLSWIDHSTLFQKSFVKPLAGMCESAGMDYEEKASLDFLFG
# Test: Counter-screen against bacteriophage T4 DNA polymerase
# Assay type: biochemical
# Details: for % inhibition T4 10' 2.5 / % inhibition T4 10' 5 / % inhibition T4 10' 10 / % inhibition T4 10' 20 / % inhibition T4 10' 40 / % inhibition T4 10' 80: read at 10'; for % inhibition T4 10' 2.5 / % inhibition T4 70' 2.5 / % inhibition T4 130' 2.5 / % inhibition T4 40' 2.5 / % inhibition T4 90' 2.5 / % inhibition T4 180' 2.5: concentration 2.5; for % inhibition T4 70' 2.5 / % inhibition T4 70' 5 / % inhibition T4 70' 10 / % inhibition T4 70' 20 / % inhibition T4 70' 40 / % inhibition T4 70' 80: read at 70'; for % inhibition T4 130' 2.5 / % inhibition T4 130' 5 / % inhibition T4 130' 10 / % inhibition T4 130' 20 / % inhibition T4 130' 40 / % inhibition T4 130' 80: read at 130'; for % inhibition T4 40' 2.5 / % inhibition T4 40' 5 / % inhibition T4 40' 10 / % inhibition T4 40' 20 / % inhibition T4 40' 40 / % inhibition T4 40' 80: read at 40'; for % inhibition T4 90' 2.5 / % inhibition T4 90' 5 / % inhibition T4 90' 10 / % inhibition T4 90' 20 / % inhibition T4 90' 40 / % inhibition T4 90' 80: read at 90'; for % inhibition T4 180' 2.5 / % inhibition T4 180' 5 / % inhibition T4 180' 10 / % inhibition T4 180' 20 / % inhibition T4 180' 40 / % inhibition T4 180' 80: read at 180'
# Outline: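 Purified T4 DNA polymerase, a B-family enzyme, served as the counter-screen enzyme. Compounds were tested in dose-response format and IC50 values were derived.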
smiles,measurement,setting,value
"O=C(c1ccccc1)N1CCc2c(nc3cc(-c4ccccc4)[nH]n3c2=O)C1 [Molecule 30, O=C(N1CCc2c(C1)nc1n(c2=O)[nH]c(c1)c1ccccc1)c1ccccc1]",% inhibition T4 10' 2.5,DRC-1,-1.603%
same,% inhibition T4 10' 5,"DRC-1, concentration 5",-4.492%
same,% inhibition T4 10' 10,"DRC-1, concentration 10",-6.45%
same,% inhibition T4 10' 20,"DRC-1, concentration 20",0.1503%
same,% inhibition T4 10' 40,"DRC-1, concentration 40",0.9641%
same,% inhibition T4 10' 80,"DRC-1, concentration 80",-0.6394%
same,% inhibition T4 70' 2.5,DRC-1,-4.009%
same,% inhibition T4 70' 5,"DRC-1, concentration 5",-7.504%
same,% inhibition T4 70' 10,"DRC-1, concentration 10",-7.7135%
same,% inhibition T4 70' 20,"DRC-1, concentration 20",-3.401%
same,% inhibition T4 70' 40,"DRC-1, concentration 40",-0.06602%
same,% inhibition T4 70' 80,"DRC-1, concentration 80",-5.584%
same,% inhibition T4 130' 2.5,DRC-1,-6.3102%
same,% inhibition T4 130' 5,"DRC-1, concentration 5",-10.6574%
same,% inhibition T4 130' 10,"DRC-1, concentration 10",-9.449%
same,% inhibition T4 130' 20,"DRC-1, concentration 20",-6.067%
same,% inhibition T4 130' 40,"DRC-1, concentration 40",-1.0022%
same,% inhibition T4 130' 80,"DRC-1, concentration 80",-9.233%
same,% inhibition T4 10' 2.5,DRC-2,1.68%
same,% inhibition T4 10' 5,"DRC-2, concentration 5",-13%
same,% inhibition T4 10' 10,"DRC-2, concentration 10",-11%
same,% inhibition T4 10' 20,"DRC-2, concentration 20",-20%
same,% inhibition T4 10' 40,"DRC-2, concentration 40",-17%
same,% inhibition T4 10' 80,"DRC-2, concentration 80",-22%
same,% inhibition T4 40' 2.5,DRC-2,1.68%
same,% inhibition T4 40' 5,"DRC-2, concentration 5",-13%
same,% inhibition T4 40' 10,"DRC-2, concentration 10",-11%
same,% inhibition T4 40' 20,"DRC-2, concentration 20",-20%
same,% inhibition T4 40' 40,"DRC-2, concentration 40",-17%
same,% inhibition T4 40' 80,"DRC-2, concentration 80",-22%
same,% inhibition T4 90' 2.5,DRC-2,1%
same,% inhibition T4 90' 5,"DRC-2, concentration 5",-13%
same,% inhibition T4 90' 10,"DRC-2, concentration 10",-10%
same,% inhibition T4 90' 20,"DRC-2, concentration 20",-17%
same,% inhibition T4 90' 40,"DRC-2, concentration 40",-15%
same,% inhibition T4 90' 80,"DRC-2, concentration 80",-21%
same,% inhibition T4 180' 2.5,DRC-2,-2.79%
same,% inhibition T4 180' 5,"DRC-2, concentration 5",-16%
same,% inhibition T4 180' 10,"DRC-2, concentration 10",-13%
same,% inhibition T4 180' 20,"DRC-2, concentration 20",-19%
same,% inhibition T4 180' 40,"DRC-2, concentration 40",-15%
same,% inhibition T4 180' 80,"DRC-2, concentration 80",-21%
"O=C1CSC2=NC3=C(CCc4ccccc43)C(c3cccs3)N12 (centres unmarked) [Molecule 59, O=C1CSC2=NC3=C(C(N12)c1cccs1)CCc1c3cccc1]",% inhibition T4 10' 2.5,DRC-1,10.0127%
same,% inhibition T4 10' 5,"DRC-1, concentration 5",9.284%
same,% inhibition T4 10' 10,"DRC-1, concentration 10",14.9012%
same,% inhibition T4 10' 20,"DRC-1, concentration 20",17.5613%
same,% inhibition T4 10' 40,"DRC-1, concentration 40",23.9437%
same,% inhibition T4 10' 80,"DRC-1, concentration 80",22.8817%
same,% inhibition T4 70' 2.5,DRC-1,9.951%
same,% inhibition T4 70' 5,"DRC-1, concentration 5",10.6029%
same,% inhibition T4 70' 10,"DRC-1, concentration 10",14.1389%
same,% inhibition T4 70' 20,"DRC-1, concentration 20",13.8668%
same,% inhibition T4 70' 40,"DRC-1, concentration 40",19.0347%
same,% inhibition T4 70' 80,"DRC-1, concentration 80",18.0959%
same,% inhibition T4 130' 2.5,DRC-1,7.352%
same,% inhibition T4 130' 5,"DRC-1, concentration 5",7.713%
same,% inhibition T4 130' 10,"DRC-1, concentration 10",10.7499%
same,% inhibition T4 130' 20,"DRC-1, concentration 20",9.8688%
same,% inhibition T4 130' 40,"DRC-1, concentration 40",15.3496%
same,% inhibition T4 130' 80,"DRC-1, concentration 80",16.7896%
same,% inhibition T4 10' 2.5,DRC-2,31%
same,% inhibition T4 10' 5,"DRC-2, concentration 5",18%
same,% inhibition T4 10' 10,"DRC-2, concentration 10",6.37%
same,% inhibition T4 10' 20,"DRC-2, concentration 20",8%
same,% inhibition T4 10' 40,"DRC-2, concentration 40",6%
same,% inhibition T4 10' 80,"DRC-2, concentration 80",11%
same,% inhibition T4 40' 2.5,DRC-2,31%
same,% inhibition T4 40' 5,"DRC-2, concentration 5",18%
same,% inhibition T4 40' 10,"DRC-2, concentration 10",6.37%
same,% inhibition T4 40' 20,"DRC-2, concentration 20",8%
same,% inhibition T4 40' 40,"DRC-2, concentration 40",6%
same,% inhibition T4 40' 80,"DRC-2, concentration 80",11%
same,% inhibition T4 90' 2.5,DRC-2,30%
same,% inhibition T4 90' 5,"DRC-2, concentration 5",18%
same,% inhibition T4 90' 10,"DRC-2, concentration 10",8%
same,% inhibition T4 90' 20,"DRC-2, concentration 20",8%
same,% inhibition T4 90' 40,"DRC-2, concentration 40",6.37%
same,% inhibition T4 90' 80,"DRC-2, concentration 80",11%
same,% inhibition T4 180' 2.5,DRC-2,24%
same,% inhibition T4 180' 5,"DRC-2, concentration 5",15%
same,% inhibition T4 180' 10,"DRC-2, concentration 10",5%
same,% inhibition T4 180' 20,"DRC-2, concentration 20",4%
same,% inhibition T4 180' 40,"DRC-2, concentration 40",5.53%
same,% inhibition T4 180' 80,"DRC-2, concentration 80",9%
"O=C(c1c[nH]c2ncccc12)N1CCCC1 [Molecule 63, O=C(c1c[nH]c2c1cccn2)N1CCCC1]",% inhibition T4 10',"DRC-2, concentration 20",25%
same,% inhibition T4 10',"DRC-2, concentration 40",31%
same,% inhibition T4 40',"DRC-2, concentration 20",25%
same,% inhibition T4 90',"DRC-2, concentration 40",31%
"COc1ccc(CNC(=O)Cn2nc3c(c2NC(=O)Cc2cccs2)CSC3)cc1 [Molecule 55, COc1ccc(cc1)CNC(=O)Cn1nc2c(c1NC(=O)Cc1cccs1)CSC2]",% inhibition T4 10',"DRC-2, concentration 5",18%
same,% inhibition T4 10',"DRC-2, concentration 10",26%
same,% inhibition T4 10',"DRC-2, concentration 20",26%
same,% inhibition T4 40',"DRC-2, concentration 10",26%
same,% inhibition T4 40',"DRC-2, concentration 20",28%
same,% inhibition T4 40',"DRC-2, concentration 80",38%
same,% inhibition T4 90',"DRC-2, concentration 20",26%
same,% inhibition T4 90',"DRC-2, concentration 80",38%
same,% inhibition T4 180',"DRC-2, concentration 10",18%
same,% inhibition T4 180',"DRC-2, concentration 40",28%
